Test [1] addresses T1, MBT domain-containing protein 1 (Homo sapiens, UniProt Q05BQ5). Description: Antagonist activity at MBTD1 (unknown origin) assessed as inhibition of MBTD1/biotinylated H4K20Me1 peptide interaction after 30 mins by AlphaScreen assay.
Test [2] concerns the target T2, Lethal(3)malignant brain tumor-like protein 4 (Homo sapiens, UniProt Q8NA19).
T2 sequence (Q8NA19 whole entry): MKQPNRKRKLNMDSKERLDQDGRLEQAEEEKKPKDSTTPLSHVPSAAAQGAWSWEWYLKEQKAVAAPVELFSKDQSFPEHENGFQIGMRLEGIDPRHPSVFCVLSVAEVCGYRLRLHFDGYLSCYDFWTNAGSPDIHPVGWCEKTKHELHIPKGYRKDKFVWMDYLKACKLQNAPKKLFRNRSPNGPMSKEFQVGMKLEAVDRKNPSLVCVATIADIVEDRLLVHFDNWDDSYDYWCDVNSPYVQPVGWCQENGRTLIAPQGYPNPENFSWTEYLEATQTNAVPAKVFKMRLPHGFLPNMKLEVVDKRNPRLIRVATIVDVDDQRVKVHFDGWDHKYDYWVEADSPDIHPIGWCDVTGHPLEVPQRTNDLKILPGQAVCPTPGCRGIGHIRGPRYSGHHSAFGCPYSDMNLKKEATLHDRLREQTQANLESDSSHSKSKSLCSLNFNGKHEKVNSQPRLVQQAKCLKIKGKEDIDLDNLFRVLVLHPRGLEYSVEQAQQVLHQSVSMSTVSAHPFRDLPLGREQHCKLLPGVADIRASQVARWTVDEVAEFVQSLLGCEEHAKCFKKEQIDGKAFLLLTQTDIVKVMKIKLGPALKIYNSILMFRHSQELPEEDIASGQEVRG
The test can be described thus: Antagonist activity at L3MBTL4 (unknown origin) assessed as inhibition of L3MBTL4/biotinylated H2AK36Me1 peptide interaction after 30 mins by AlphaScreen assay. In general terms: Bead proximity is the source of the signal in Alpha formats.

In test [3] the target is T3, Lethal(3)malignant brain tumor-like protein 3 (Homo sapiens, UniProt Q96JM7).
T3 sequence (Q96JM7 whole entry): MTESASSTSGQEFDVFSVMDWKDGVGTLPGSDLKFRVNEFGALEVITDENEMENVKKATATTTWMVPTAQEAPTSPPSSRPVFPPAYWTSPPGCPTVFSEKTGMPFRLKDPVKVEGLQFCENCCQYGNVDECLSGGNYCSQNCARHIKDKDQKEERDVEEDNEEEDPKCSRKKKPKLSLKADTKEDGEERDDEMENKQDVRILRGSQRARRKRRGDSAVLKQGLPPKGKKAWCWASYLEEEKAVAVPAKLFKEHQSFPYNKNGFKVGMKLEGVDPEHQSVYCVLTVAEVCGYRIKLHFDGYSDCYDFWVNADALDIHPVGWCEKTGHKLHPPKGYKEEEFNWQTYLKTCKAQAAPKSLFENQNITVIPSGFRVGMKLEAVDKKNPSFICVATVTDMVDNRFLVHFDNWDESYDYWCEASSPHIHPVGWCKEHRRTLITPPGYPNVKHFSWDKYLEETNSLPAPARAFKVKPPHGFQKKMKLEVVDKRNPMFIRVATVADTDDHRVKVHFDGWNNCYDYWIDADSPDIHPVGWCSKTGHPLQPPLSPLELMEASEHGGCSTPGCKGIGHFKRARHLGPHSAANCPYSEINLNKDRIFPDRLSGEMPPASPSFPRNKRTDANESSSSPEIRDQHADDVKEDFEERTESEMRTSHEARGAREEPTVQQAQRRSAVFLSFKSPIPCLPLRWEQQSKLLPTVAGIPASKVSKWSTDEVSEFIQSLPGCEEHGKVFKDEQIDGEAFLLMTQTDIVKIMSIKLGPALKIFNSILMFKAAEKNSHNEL
The test can be described thus: Antagonist activity at His-tagged L3MBTL3 (unknown origin) assessed as inhibition of L3MBTL3/biotinylated H4K20Me2 peptide interaction after 30 mins by AlphaScreen assay.

For test [4], the target named is T4, Scm-like with four MBT domains protein 1 (Homo sapiens) (UniProt Q9UHJ3).
T4 sequence (whole entry): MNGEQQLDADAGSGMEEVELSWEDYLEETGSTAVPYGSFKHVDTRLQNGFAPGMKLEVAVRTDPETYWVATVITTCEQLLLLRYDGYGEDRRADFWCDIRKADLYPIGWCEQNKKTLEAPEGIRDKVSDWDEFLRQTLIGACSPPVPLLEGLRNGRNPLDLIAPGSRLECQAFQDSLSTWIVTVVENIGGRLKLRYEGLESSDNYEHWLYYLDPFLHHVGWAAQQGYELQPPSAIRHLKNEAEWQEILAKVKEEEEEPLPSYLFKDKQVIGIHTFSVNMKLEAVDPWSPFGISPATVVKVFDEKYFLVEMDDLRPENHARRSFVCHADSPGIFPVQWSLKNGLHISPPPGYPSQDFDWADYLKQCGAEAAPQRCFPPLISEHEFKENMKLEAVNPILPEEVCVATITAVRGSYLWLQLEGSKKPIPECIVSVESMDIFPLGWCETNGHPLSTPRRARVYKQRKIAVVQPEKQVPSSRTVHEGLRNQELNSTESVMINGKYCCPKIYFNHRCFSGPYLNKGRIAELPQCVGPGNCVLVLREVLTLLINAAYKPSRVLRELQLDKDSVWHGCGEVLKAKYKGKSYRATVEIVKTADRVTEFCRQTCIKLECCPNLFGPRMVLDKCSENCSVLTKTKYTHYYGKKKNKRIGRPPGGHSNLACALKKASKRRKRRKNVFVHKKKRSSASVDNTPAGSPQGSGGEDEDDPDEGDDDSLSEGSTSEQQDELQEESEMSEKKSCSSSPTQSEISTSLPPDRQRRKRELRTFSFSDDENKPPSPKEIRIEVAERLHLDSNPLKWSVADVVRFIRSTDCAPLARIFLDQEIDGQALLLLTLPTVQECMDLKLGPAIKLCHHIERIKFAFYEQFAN
The test can be described thus: Antagonist activity at SFMBT1 (unknown origin) assessed as inhibition of SFMBT1/biotinylated H3K9Me1 peptide interaction at 30 uM after 30 mins by AlphaScreen assay.

In test [5] the target is T1, MBT domain-containing protein 1. Description: Antagonist activity at MBTD1 (unknown origin) assessed as inhibition of MBTD1/biotinylated H4K20Me1 peptide interaction at 30 uM after 30 mins by AlphaScreen assay.
Test [6] concerns the target T5, Lethal(3)malignant brain tumor-like protein 3 (Homo sapiens) (UniProt Q96JM7).
T5 sequence (whole entry): T3 sequence (Q96JM7 whole entry)
The test can be described thus: Antagonist activity at His-tagged L3MBTL3 (unknown origin) assessed as inhibition of L3MBTL3/biotinylated H4K20Me2 peptide interaction at 30 uM after 30 mins by AlphaScreen assay.

Each structure is given as a SMILES string. Active and inactive are the calls of the source. The rule behind the calls is not given here.

T1 sequence (Q05BQ5 whole entry, the tested form may be a part): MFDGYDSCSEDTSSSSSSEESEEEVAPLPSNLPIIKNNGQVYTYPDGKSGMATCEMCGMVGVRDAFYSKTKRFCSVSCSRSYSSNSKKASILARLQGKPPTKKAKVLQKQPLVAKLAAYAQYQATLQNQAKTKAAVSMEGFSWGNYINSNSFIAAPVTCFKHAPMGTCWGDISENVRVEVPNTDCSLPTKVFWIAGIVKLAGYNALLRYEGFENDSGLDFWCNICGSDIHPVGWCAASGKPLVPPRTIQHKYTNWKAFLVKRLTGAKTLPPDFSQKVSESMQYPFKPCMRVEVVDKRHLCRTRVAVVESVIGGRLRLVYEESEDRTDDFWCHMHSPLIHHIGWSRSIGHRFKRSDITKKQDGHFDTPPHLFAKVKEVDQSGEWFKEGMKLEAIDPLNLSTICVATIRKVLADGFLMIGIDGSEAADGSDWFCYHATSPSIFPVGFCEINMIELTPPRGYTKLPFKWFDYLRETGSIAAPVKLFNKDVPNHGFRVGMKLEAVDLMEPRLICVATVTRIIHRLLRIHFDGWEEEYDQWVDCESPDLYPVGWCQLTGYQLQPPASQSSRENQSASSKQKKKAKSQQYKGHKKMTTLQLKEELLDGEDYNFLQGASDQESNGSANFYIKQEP

The term IC50 denotes the concentration needed to halve the response being measured. Usually inhibition stands for the share of the control response that was lost under treatment. Turning to `Brc1cccc(CN2CCC(N3CCCC3)CC2)c1`, the IC50 in test [1] was 18.6 µM; in test [2], greater than 30 µM; in test [3], 13.3 µM. In test [4], the inhibition result was “inactive”.

`O=S(=O)(c1cccc(Br)c1)N1CCC(N2CCCC2)CC1`: the IC50 in test [1] is 21.9 µM; in test [2], greater than 30 µM; in test [3], 3.7 µM. Moreover, the inhibition entry in test [4] was “inactive”.

On to `O=C(c1cccc(Br)c1)N1CCC(N2CCCC2)C1` (configuration not stated), for which the inhibition is 13% in test [5] and 40% in test [6]. Besides, the IC50 in test [1], in test [2] and in test [3] was greater than 30 µM each time. Also, the inhibition entry in test [4] is “inactive”.

For the compound `O=C(O)c1cccc(C(=O)N2CCC(N3CCCC3)CC2)c1`, the inhibition in test [5] came to 4%. For the same compound, the results for the half-inhibitory concentration (IC50) in test [1], in test [2] and in test [3] were greater than 30 µM, greater than 30 µM and 6.9 µM, respectively. Further, the inhibition result in test [4] is “inactive”.

In the case of `CC1CCCN1C1CCN(C(=O)c2cccc(Br)c2)CC1` (configuration not stated), the inhibition in test [5] came out at 16%; in test [6], 25%. In addition, the half-maximal inhibitory concentration (IC50) in test [1], in test [2] and in test [3] was greater than 30 µM in each case. Moreover, the inhibition entry in test [4] was “inactive”.

`O=C(c1cccc(Br)c1)N1CCC(C2CCCN2)CC1` (configuration not stated): the 50% inhibitory concentration (IC50) in test [1] was 9.2 µM; in test [2], greater than 30 µM. For the same compound, the inhibition in test [6] came to 52%. The inhibition entry in test [4] is “inactive”.

Regarding `O=C(c1cccc(Br)c1)N1CCN(C2CCCC2)CC1`, the inhibition entry in test [5] and in test [4] was “inactive” throughout. Further, the IC50 in test [1], in test [2] and in test [3] was greater than 30 µM throughout. Besides, in test [6], the inhibition was 5%.

As to `C[N+]1(C2CCN(C(=O)c3cccc(Br)c3)CC2)CCCC1`, the inhibition in test [5] stood at 3%; in test [6], 13%. Besides, the IC50 in test [1], in test [2] and in test [3] was greater than 30 µM throughout. The inhibition result in test [4] was “inactive”.

In the case of `O=C(c1cccc(Br)c1)N1CCC(N2CCCCC2)CC1`, the values for the IC50 in test [1], in test [2] and in test [3] were 29.7 µM, greater than 30 µM and greater than 30 µM, respectively. For the same compound, in test [6], the inhibition is 21%. The inhibition result in test [4] is “inactive”.

For the compound `CC(c1cccc(Br)c1)N1CCC(N2CCCC2)CC1` (racemic), the IC50 is 9 µM in test [1], greater than 30 µM in test [2] and 16 µM in test [3]. In test [4], the inhibition entry is “inactive”.

For the compound `CN1CCCC1C1CCN(C(=O)c2cccc(Br)c2)CC1` (configuration not stated), in test [5], the inhibition worked out at 32%. For the same compound, the values for the concentration for half-maximal inhibition (IC50) in test [1], in test [2] and in test [3] were greater than 30 µM, greater than 30 µM and 21 µM, respectively. The inhibition entry in test [4] is “inactive”.

For `O=C(c1cccc(Br)c1)N1CCC(N2CCCC2)CC1`, the values for the inhibition in test [5] and in test [4] were 44% and 12%, respectively. For the same compound, the IC50 in test [1] is greater than 30 µM; in test [2], 15.6 µM; in test [3], 3.2 µM.

For the compound `CN(C)C1CCN(C(=O)c2cccc(Br)c2)CC1`, the inhibition amounted to 1% in test [5] and 18% in test [6]. Besides, the IC50 in test [1], in test [2] and in test [3] was greater than 30 µM in each case. Besides, the inhibition result in test [4] was “inactive”.

As to `O=C(c1cccc(Br)c1)N1CCC(N2CCC2)CC1`, the inhibition in test [5] came to 20%. In addition, the 50% inhibitory concentration (IC50) in test [1] was greater than 30 µM; in test [2], greater than 30 µM; in test [3], 23.8 µM. For the same compound, in test [4], the inhibition entry is “inactive”.

For the compound `CNC1CCN(C(=O)c2cccc(Br)c2)CC1`, the figures for the inhibition in test [5] and in test [6] were 3% and 9%, respectively. Besides, the IC50 in test [1], in test [2] and in test [3] was greater than 30 µM throughout. In addition, in test [4], the inhibition entry was “inactive”.
